Results published in ChEMBL document CHEMBL4308841, “Synthesis, in vitro antiproliferative activity, and kinase inhibitory effects of pyrazole-containing diarylureas and diarylamides” (Eur J Med Chem, 2018).

Key:
NCI-H522 = experiment: Growth inhibition of human NCI-H522 cells assessed as cell growth at 10 uM incubated for 48 hrs by sulforhodamine B assay relative to control; type: functional; conditions: NCI-H522, 48 h, read-out: Activity
HCT-116 = experiment: Growth inhibition of human HCT116 cells incubated for 48 hrs by sulforhodamine B assay; type: functional, cell-based; conditions: HCT-116, 48 h
U-251 [1] = experiment: Growth inhibition of human U251 cells incubated for 48 hrs by sulforhodamine B assay; type: functional, cell-based; conditions: U-251, 48 h
MDA-MB-435 = experiment: Growth inhibition of human MDA-MB-435 cells incubated for 48 hrs by sulforhodamine B assay; type: functional, cell-based; conditions: MDA-MB-435, 48 h
UACC-257 = experiment: Growth inhibition of human UACC257 cells incubated for 48 hrs by sulforhodamine B assay; type: functional, cell-based; conditions: UACC-257, 48 h
T47D = experiment: Growth inhibition of human T47D cells incubated for 48 hrs by sulforhodamine B assay; type: functional, cell-based
K562 = experiment: Growth inhibition of human K562 cells assessed as cell growth at 0.01 uM incubated for 48 hrs by sulforhodamine B assay relative to control; type: functional; conditions: K562, 48 h, read-out: Activity
RPMI-8226 [2] = experiment: Growth inhibition of human RPMI8226 cells assessed as cell growth at 0.01 uM incubated for 48 hrs by sulforhodamine B assay relative to control; type: functional; conditions: RPMI-8226, 48 h, read-out: Activity
HT-29 [3] = experiment: Growth inhibition of human HT-29 cells assessed as cell growth at 0.01 uM incubated for 48 hrs by sulforhodamine B assay relative to control; type: functional; conditions: HT-29, 48 h, read-out: Activity
KM12 = experiment: Growth inhibition of human KM12 cells assessed as cell growth at 0.01 uM incubated for 48 hrs by sulforhodamine B assay relative to control; type: functional; conditions: KM12, 48 h, read-out: Activity
OVCAR-5 = experiment: Growth inhibition of human OVCAR5 cells assessed as cell growth at 0.01 uM incubated for 48 hrs by sulforhodamine B assay relative to control; type: functional; conditions: OVCAR-5, 48 h, read-out: Activity
NCI/ADR-RES = experiment: Growth inhibition of human NCI/ADR-RES cells assessed as cell growth at 0.01 uM incubated for 48 hrs by sulforhodamine B assay relative to control; type: functional; conditions: read-out: Activity
RPMI-8226 [4] = experiment: Growth inhibition of human RPMI8226 cells assessed as cell growth at 0.1 uM incubated for 48 hrs by sulforhodamine B assay relative to control; type: functional; conditions: RPMI-8226, 48 h, read-out: Activity
HT-29 [5] = experiment: Growth inhibition of human HT-29 cells assessed as cell growth at 0.1 uM incubated for 48 hrs by sulforhodamine B assay relative to control; type: functional; conditions: HT-29, 48 h, read-out: Activity
OVCAR-3 [6] = experiment: Growth inhibition of human OVCAR3 cells assessed as cell growth at 0.1 uM incubated for 48 hrs by sulforhodamine B assay relative to control; type: functional; conditions: OVCAR-3, 48 h, read-out: Activity
COLO 205 = experiment: Growth inhibition of human COLO205 cells assessed as cell growth at 1 uM incubated for 48 hrs by sulforhodamine B assay relative to control; type: functional; conditions: COLO 205, 48 h, read-out: Activity
LOX IMVI = experiment: Growth inhibition of human LOXIMVI cells assessed as cell growth at 1 uM incubated for 48 hrs by sulforhodamine B assay relative to control; type: functional; conditions: read-out: Activity
UACC-62 = experiment: Growth inhibition of human UACC62 cells assessed as cell growth at 1 uM incubated for 48 hrs by sulforhodamine B assay relative to control; type: functional; conditions: UACC-62, 48 h, read-out: Activity
SK-OV-3 = experiment: Growth inhibition of human SKOV3 cells assessed as cell growth at 1 uM incubated for 48 hrs by sulforhodamine B assay relative to control; type: functional; conditions: SK-OV-3, 48 h, read-out: Activity
786-0 = experiment: Growth inhibition of human 786-0 cells assessed as cell growth at 1 uM incubated for 48 hrs by sulforhodamine B assay relative to control; type: functional; conditions: 786-0, 48 h, read-out: Activity
RXF 393 = experiment: Growth inhibition of human RXF393 cells assessed as cell growth at 1 uM incubated for 48 hrs by sulforhodamine B assay relative to control; type: functional; conditions: RXF 393, 48 h, read-out: Activity
Hs-578T = experiment: Growth inhibition of human Hs578T cells assessed as cell growth at 1 uM incubated for 48 hrs by sulforhodamine B assay relative to control; type: functional; conditions: read-out: Activity
MDA-MB-468 = experiment: Growth inhibition of human MDA-MB-468 cells assessed as cell growth at 1 uM incubated for 48 hrs by sulforhodamine B assay relative to control; type: functional; conditions: MDA-MB-468, 48 h, read-out: Activity
NCI-H226 = experiment: Growth inhibition of human NCI-H226 cells assessed as cell growth at 100 uM incubated for 48 hrs by sulforhodamine B assay relative to control; type: functional; conditions: NCI-H226, 48 h, read-out: Activity
HCC 2998 = experiment: Growth inhibition of human HCC2998 cells assessed as cell growth at 100 uM incubated for 48 hrs by sulforhodamine B assay relative to control; type: functional; conditions: HCC 2998, 48 h, read-out: Activity
U-251 [7] = experiment: Growth inhibition of human U251 cells assessed as cell growth at 100 uM incubated for 48 hrs by sulforhodamine B assay relative to control; type: functional; conditions: U-251, 48 h, read-out: Activity
IGROV-1 = experiment: Growth inhibition of human IGROV1 cells assessed as cell growth at 100 uM incubated for 48 hrs by sulforhodamine B assay relative to control; type: functional; conditions: IGROV-1, 48 h, read-out: Activity
OVCAR-3 [8] = experiment: Growth inhibition of human OVCAR3 cells assessed as cell growth at 100 uM incubated for 48 hrs by sulforhodamine B assay relative to control; type: functional; conditions: OVCAR-3, 48 h, read-out: Activity
BT-549 = experiment: Growth inhibition of human BT549 cells assessed as cell growth at 100 uM incubated for 48 hrs by sulforhodamine B assay relative to control; type: functional; conditions: BT-549, 48 h, read-out: Activity
CCRF-CEM = experiment: Growth inhibition of human CCRF-CEM cells assessed as cell growth at 100 uM incubated for 48 hrs by sulforhodamine B assay relative to control; type: functional; conditions: read-out: Activity
[9] = read-out: LC50 (the source's name)
[10] = read-out: pLC50 (the source's name) (converted)

COc1cc(Cl)cc(-c2nn(-c3cccc(NC(=O)c4ccc(Cl)c(Cl)c4)c3)cc2-c2ccncc2)c1
growth at 10 µM (NCI-H522): 53.7%

O=C(Nc1cccc(-n2cc(-c3ccncc3)c(-c3cc(O)cc(Cl)c3)n2)c1)Nc1ccc(Cl)c(Cl)c1
IC50 (HCT-116): 1740 nM
GI50 (HCT-116; read-out: GI50): 1740 nM
CC50 (HCT-116; [9]): 9590 nM
TGI (HCT-116; read-out: TGI): 41000 nM
GI50 (HCT-116; read-out: pGI50 (converted)): 1740 nM
CC50 (HCT-116; [10]): 9770 nM
TGI (HCT-116; read-out: pTGI (converted)): 4070 nM
IC50 (U-251 [1]): 1440 nM
GI50 (U-251 [1]; read-out: GI50): 1440 nM
CC50 (U-251 [1]; [9]): 5510 nM
TGI (U-251 [1]; read-out: TGI): 30000 nM
GI50 (U-251 [1]; read-out: pGI50 (converted)): 1450 nM
CC50 (U-251 [1]; [10]): 6610 nM
TGI (U-251 [1]; read-out: pTGI (converted)): 3090 nM
GI50 (MDA-MB-435; read-out: GI50): 1500 nM
TGI (MDA-MB-435; read-out: TGI): 35800 nM
GI50 (MDA-MB-435; read-out: pGI50 (converted)): 1580 nM
TGI (MDA-MB-435; read-out: pTGI (converted)): 3550 nM
GI50 (UACC-257; read-out: GI50): 1960 nM
CC50 (UACC-257; [9]): 9500 nM
TGI (UACC-257; read-out: TGI): 43000 nM
GI50 (UACC-257; read-out: pGI50 (converted)): 1950 nM
CC50 (UACC-257; [10]): 9550 nM
TGI (UACC-257; read-out: pTGI (converted)): 4270 nM
GI50 (T47D; read-out: GI50): 2320 nM
CC50 (T47D; [9]): > 100000 nM
TGI (T47D; read-out: TGI): 61700 nM
GI50 (T47D; read-out: pGI50 (converted)): 2400 nM
CC50 (T47D; [10]): > 100000 nM
TGI (T47D; read-out: pTGI (converted)): 6170 nM
growth at 0.01 µM (K562): 107%
growth at 0.01 µM (RPMI-8226 [2]): 104%
growth at 0.01 µM (HT-29 [3]): 91%
growth at 0.01 µM (KM12): 102%
growth at 0.01 µM (OVCAR-5): 53%
growth at 0.01 µM (NCI/ADR-RES): 109%
growth at 0.1 µM (RPMI-8226 [4]): 103%
growth at 0.1 µM (HT-29 [5]): 97%
growth at 0.1 µM (OVCAR-3 [6]): 101%
growth at 1 µM (COLO 205): 101%
growth at 1 µM (LOX IMVI): 83%
growth at 1 µM (UACC-62): 83%
growth at 1 µM (SK-OV-3): 110%
growth at 1 µM (786-0): 71%
growth at 1 µM (RXF 393): 38%
growth at 1 µM (Hs-578T): 57%
growth at 1 µM (MDA-MB-468): 59%
growth at 100 µM (NCI-H226): -41%
growth at 100 µM (HCC 2998): -55%
growth at 100 µM (U-251 [7]): -57%
growth at 100 µM (IGROV-1): -12%
growth at 100 µM (OVCAR-3 [8]): -20%
growth at 100 µM (BT-549): -38%

COc1cc(Cl)cc(-c2nn(-c3cccc(NC(=O)Nc4cc(C(F)(F)F)cc(C(F)(F)F)c4)c3)cc2-c2ccncc2)c1
growth at 10 µM (NCI-H522): -15.6%
IC50 (HCT-116): 330 nM
GI50 (HCT-116; read-out: GI50): 332 nM
TGI (HCT-116; read-out: TGI): 1270 nM
GI50 (HCT-116; read-out: pGI50 (converted)): 331 nM
CC50 (HCT-116; [10]): 6610 nM
TGI (HCT-116; read-out: pTGI (converted)): 1260 nM
IC50 (U-251 [1]): 320 nM
GI50 (U-251 [1]; read-out: GI50): 324 nM
CC50 (U-251 [1]; [9]): 43 nM
TGI (U-251 [1]; read-out: TGI): 1310 nM
GI50 (U-251 [1]; read-out: pGI50 (converted)): 324 nM
CC50 (U-251 [1]; [10]): 4370 nM
TGI (U-251 [1]; read-out: pTGI (converted)): 1320 nM
IC50 (MDA-MB-435): 430 nM
GI50 (MDA-MB-435; read-out: GI50): 425 nM
LC50 (MDA-MB-435; read-out: LC50): 11.5 nM
TGI (MDA-MB-435; read-out: TGI): 2030 nM
GI50 (MDA-MB-435; read-out: pGI50 (converted)): 427 nM
LC50 (MDA-MB-435; read-out: pLC50 (converted)): 11700 nM
TGI (MDA-MB-435; read-out: pTGI (converted)): 2040 nM
IC50 (UACC-257): 410 nM
GI50 (UACC-257; read-out: GI50): 412 nM
CC50 (UACC-257; [9]): 70 nM
TGI (UACC-257; read-out: TGI): 1840 nM
GI50 (UACC-257; read-out: pGI50 (converted)): 407 nM
CC50 (UACC-257; [10]): 7080 nM
TGI (UACC-257; read-out: pTGI (converted)): 1860 nM
IC50 (T47D): 390 nM
GI50 (T47D; read-out: GI50): 390 nM
CC50 (T47D; [9]): > 100000 nM
TGI (T47D; read-out: TGI): 4160 nM
GI50 (T47D; read-out: pGI50 (converted)): 389 nM
CC50 (T47D; [10]): > 100000 nM
TGI (T47D; read-out: pTGI (converted)): 4170 nM
growth at 0.01 µM (K562): 97%
growth at 0.01 µM (RPMI-8226 [2]): 93%
growth at 0.01 µM (HT-29 [3]): 102%
growth at 0.01 µM (KM12): 97%
growth at 0.01 µM (OVCAR-5): 99%
growth at 0.01 µM (NCI/ADR-RES): 99%
growth at 0.1 µM (RPMI-8226 [4]): 87%
growth at 0.1 µM (HT-29 [5]): 101%
growth at 0.1 µM (OVCAR-3 [6]): 95%
growth at 1 µM (COLO 205): 24%
growth at 1 µM (UACC-62): 18%
growth at 1 µM (SK-OV-3): 43%
growth at 1 µM (786-0): 38%
growth at 1 µM (RXF 393): 50%
growth at 1 µM (Hs-578T): 50%
growth at 1 µM (MDA-MB-468): 15%
growth at 100 µM (CCRF-CEM): -29%
growth at 100 µM (NCI-H226): -47%
growth at 100 µM (HCC 2998): -70%
growth at 100 µM (U-251 [7]): -92%
growth at 100 µM (IGROV-1): -42%
growth at 100 µM (OVCAR-3 [8]): -81%
growth at 100 µM (BT-549): -80%
